# Results reported in patent publication US8187278B2, “Photodynamic cellular and acellular organism eradication utilizing a photosensitive material and benzalkonium chloride” (Advanced Photodynamic Technologies, Inc., priority 1998, dated 2012).
# Read-outs that look alike come from different tables or passages of the source.
# Assays:
# [1] = system: several species of bacteria; assay: photoeradication using methylene blue mediated PDT and the surfactant benzalkonium chloride (FIG. 2), qualitative colony count; type: cell-based; details: diode laser about 664 nm, 100 mw/cm^2, 30 to 40 J/cm^2; methylene blue 0 to 100 μg/ml, benzalkonium chloride 0 to 0.01%; topically applied
# Description: One particular treatment protocol according to the present invention utilizes the photosensitive material methylene blue and surfactant benzalkonium chloride. Benzalkonium chloride concentrations from 0.001% to 0.5% have been identified as advantageous in the destruction of certain microorganisms, such as Candida albicans, Escherechia coli, Pseudomonas aeruginosa, Staphylococcus aureus, Klebsellia, Serratia,Haemophilus influenza, and Streptococcus pneumoniae. Reference may be made to FIG. 2, which illustrates a schedule of investigation results. […] The laser used for illumination was a diode laser. Methylene blue concentrations ranged from 0 to 100 μg/ml. Benzalkonium chloride concentrations ranged from 0 to 0.01%. The combined solution was topically applied at the cell site. A light dosage rate was 100 mw/cm^2. Light dosages ranged from 30 to 40 J/cm^2. A qualitative colony count relates particular colony counts to an associated score.
# [2] = cited from earlier work
# [3] = cited from earlier work; remark: listed apart in the source
Compound,sensitization of bacteria to killing by laser irradiation [1],"toxic effects on administration in high doses ([2]; humans, orally and intravenously, high doses)",tissue toxicity ([2]; in vivo),yield of the singlet oxygen generation ([3]; pH 5),yield of the singlet oxygen generation ([3]; pH 9)
alkyl dimethyl benzylammonium chloride [benzalkonium chloride],alone neither the surfactant nor the photosensitizing agent sensitized the bacteria to killing by laser irradiation,–,–,–,–
CN(C)c1ccc2nc3ccc(=[N+](C)C)cc-3sc2c1 [methylene blue],alone neither the surfactant nor the photosensitizing agent sensitized the bacteria to killing by laser irradiation,without any toxic effects,very low tissue toxicity,0.2,0.94
